{"source": "patent US20260217701A1", "about": "“SELECTIVE BET INHIBITORS AND USES THEREOF” (Tay Therapeutics Limited, priority 2022, published 2026)", "test_system": "lupus", "assay": "SLE (lupus) model: kidney histology lesion scores", "format": "in vivo, MRL/MpJ-Faslpr mice", "details": "for Total Glomerular Lesion (mean score) / Total Glomerular Lesion (table title: Mean Total Kidney Lesion Scores) / Total Tubular and Interstitial Lesion (mean score) / Mean total glomerular lesion score / Mean total kidney lesion score / Mean total tubular and interstitial lesion score: Week 19", "protocol": "Female MRL/MpJ-Faslpr mice (The Jackson Laboratory) were used to assess the efficacy of Compound A in treating lupus. Starting when animals were 10 weeks of age, protein concentration in urine was measured using urine dipsticks.\nAt the start of the study, each group in the study had two animals that were 9 weeks old, and all others were 10 weeks old. Dosing of all animals with the test compounds began when the older animals were 11 weeks old. […] […] Dosing was at a consistent time each dosing day throughout the study.\nCompound A may be formulated as illustrated in Experimental Method A (see Table 2E.). […] A stock solution of Compound A in DMSO (stock solution concentration of Compound A of 40 mg/mL) was prepared and aliquots for weekly preparations were frozen at −20° C. On each preparation day, a stock solution aliquot was thawed and diluted with other vehicle components to the desired concentration. Formulated Compound A and vehicle were at room temperature for dosing.\nThe study began when the older animals were 11 weeks old, and concluded when the older animals were 19 weeks old. Body weight was recorded once a week, with the exception of two weight measurements taken the first week of the study (when the older animals were 11 weeks old). Proteinuria was measured in the urine of animals with urine dipsticks once a week, starting when the older animals were 10 weeks old. […] Blood samples were taken retro-orbitally at the start of the study to establish a baseline (15 animals, 3 per group), and when the older animals were 16 weeks (all animals) and when animals were 19 weeks (all animals) at the conclusion of the study. Blood urea nitrogen (BUN) was measured in all animals at study termination in blood samples. After blood collection, animals were euthanized, perfused with PBS, and the left kidneys were collected and weighed and fixed in 10% buffered formalin. Left kidneys were then processed to a formalin-fixed, paraffin-embedded (FFPE) block, and histology was analyzed in Periodic Acid-Schiff-stained sections (1 section per slide), using the criteria described in Alperovich et al., Lupus, 16:18-24 (2007). Right kidneys were weighed and snap-frozen at −80° C. Spleens were also collected and weighed. SLE in animals treated with a BET inhibitor and vehicle."}
{"smiles": "Cn1cc(-c2ccccc2)c(-c2cn(C)c(=O)c3[nH]c(-c4cnn(C(F)(F)F)c4)cc23)cc1=O", "note": "[Compound A, 6-methyl-4-(1-methyl-2-oxo-5-phenyl-1,2-dihydropyridin-4-yl)-2-(1-(trifluoromethyl)-1H-pyrazol-4-yl)-1,6-dihydro-7H-pyrrolo[2,3-c]pyridin-7-one]", "values": [{"measurement": "Total Glomerular Lesion (mean score)", "setting": "Compound A 1 mg/kg PO QD", "result": 3.9}, {"measurement": "Total Glomerular Lesion (table title: Mean Total Kidney Lesion Scores)", "setting": "Compound A 1 mg/kg PO QD", "result": 5.1}, {"measurement": "Total Tubular and Interstitial Lesion (mean score)", "setting": "Compound A 1 mg/kg PO QD", "result": 1.2}, {"measurement": "Total Glomerular Lesion (mean score)", "setting": "Compound A 3 mg/kg PO QD", "result": 2.7}, {"measurement": "Total Glomerular Lesion (table title: Mean Total Kidney Lesion Scores)", "setting": "Compound A 3 mg/kg PO QD", "result": 3.8}, {"measurement": "Total Tubular and Interstitial Lesion (mean score)", "setting": "Compound A 3 mg/kg PO QD", "result": 1.1}, {"measurement": "Total Glomerular Lesion (mean score)", "setting": "Compound A 10 mg/kg PO QD", "result": 1.1}, {"measurement": "Total Glomerular Lesion (table title: Mean Total Kidney Lesion Scores)", "setting": "Compound A 10 mg/kg PO QD", "result": 1.6}, {"measurement": "Total Tubular and Interstitial Lesion (mean score)", "setting": "Compound A 10 mg/kg PO QD", "result": 0.5}, {"measurement": "Mean total glomerular lesion score", "setting": "1 mg/kg", "result": "about 3.9"}, {"measurement": "Mean total kidney lesion score", "setting": "1 mg/kg", "result": "about 5.1"}, {"measurement": "Mean total tubular and interstitial lesion score", "setting": "1 mg/kg", "result": "about 1.2"}, {"measurement": "Mean total glomerular lesion score", "setting": "3 mg/kg", "result": "about 2.7"}, {"measurement": "Mean total kidney lesion score", "setting": "3 mg/kg", "result": "about 3.8"}, {"measurement": "Mean total tubular and interstitial lesion score", "setting": "3 mg/kg", "result": "about 1.1"}, {"measurement": "Mean total glomerular lesion score", "setting": "10 mg/kg", "result": "about 1.1"}, {"measurement": "Mean total kidney lesion score", "setting": "10 mg/kg", "result": "about 1.6"}, {"measurement": "Mean total tubular and interstitial lesion score", "setting": "10 mg/kg", "result": "about 0.5"}, {"measurement": "Kidney histology images (FIGS. 30H-30L), disease suppression", "setting": "increasing dosage", "result": "dose dependent improvement in disease suppression"}]}
